Experimental data reported in patent publication US8404691B2, “Imidazothiazole derivatives having proline ring structure” (Daiichi Sankyo Company, Limited, priority 2009, dated 2013).

What was measured:
[1] = tested on: human lung cancer-derived cell line NCI-H460 having wild-type p53; assay: Cell growth inhibition assay (MTT); format: cell-based; settings: 72 h, NCI-H460 cells, culturing 3 days, read-out: anti-cellular effect GI50 (50% growth inhibition concentration)
Description: A cell growth inhibition assay was conducted using human lung cancer-derived cell line NCI-H460 having wild-type p53.
NCI-H460 cells were suspended in a medium (RPMI1640 medium containing 10% fetal bovine serum) and the suspension was inoculated in an amount of 500 cells/150 μL/well to a 96-well multiwell plate. A test compound was dissolved in DMSO and this solution was diluted with medium to prepare a sample solution (DMSO concentration: 1% or lower). On the next day of inoculation, medium nonsupplemented with the test compound or the sample solution was added in an amount of 50 μL/well. The MTT assay was conducted immediately after the medium was added in an amount of 50 μL on the next day of cell inoculation, and after the sample solution or the medium was added to cells followed by culturing at 37° C. for 3 days in a 5% CO2 atmosphere. The MTT assay was conducted as shown below.
A 5 mg/mL MTT (3-(4,5-dimethylthiazol-2-yl)-2,5-diphenyltetrazolium bromide, Sigma-Aldrich Co., M-2128) solution was prepared using a phosphate buffer solution (Dulbecco's Phosphate-buffered Saline). This MTT solution was added in an amount of 20 μL/well. Then, the plate was cultured at 37° C. for 4 hours in a 5% CO2 atmosphere. The plate was centrifuged at 1200 rpm for 5 minutes and then the culture supernatant was removed by aspiration using a dispenser. DMSO was added in an amount of 150 μL/well to dissolve generated formazan. The plate was stirred using a plate mixer for uniform color development from each well. The absorbance of each well was measured under conditions of OD 540 nm and reference 660 nm using a plate reader (SpectraMax PLUS384, Molecular Devices, CA, USA).
The OD value measured on the day of adding the sample solution was defined as S. The OD value measured three days after addition of the sample solution was defined as T. The OD value measured three days after addition of the DMSO dilution was defined as C. T/C (%) was determined at each concentration according to the calculation formula shown below to prepare a dose response curve, from which 50% growth inhibition concentration (GI50 value) was calculated. T/C(%)=(T−S)/(C−S)×100

[2] = Metabolic stability test (microsomal metabolism); format: in vitro ADME; settings: human liver microsomes, 37° C., 30 minutes after addition of NADP+; further: tested at 1.1 µM
Description: 100 μL of 100 mM phosphate buffer solution (pH 7.4) containing 3 μM test compound was added to 100 μL of reaction solution containing 100 mM phosphate buffer solution (pH 7.4), 30 mM glucose 6-phosphate, 10 mM MgCl2.6H2O, 3 units/mL glucose 6-phosphate 1-dehydrogenase, and 0.3 to 1.5 mgP/mL human liver microsomes and the mixture was incubated at 37° C. for 20 minutes. Then, 70 μL of 100 mM phosphate buffer solution (pH 7.4) containing 3 mM NADP+ was added and the mixture was further incubated at 37° C. for 30 minutes to conduct a microsomal metabolism test. The compound was quantified by the internal standard method using a quadrupole mass spectrometer connected to a high performance liquid chromatography apparatus. The metabolic stability (residual percentage of compound: MS %) was determined according to the following formula: MS(human)(%)=(peak area ratio of test compound after addition of NADP+ and incubation for 30 minutes)/(peak area ratio of test compound before addition of NADP+)×100.
(peak area ratio: peak area of test compound divided by that of internal standard substance)

Mdm2/p53 binding = target: T1, Mdm2/p53 binding (Homo sapiens, UniProt Q00987, L33E); assay: Mdm2/p53 binding assay (HTRF, His-p53 and GST-Mdm2); settings: His-p53 (aa 1-132) and GST-Mdm2 (aa 25-108, L33E), 6.25 nM each, 25° C. for 1 hour
T1 construct: Mdm2 amino acids at positions 25 to 108
T1 sequence (Q00987 25-108 L33E): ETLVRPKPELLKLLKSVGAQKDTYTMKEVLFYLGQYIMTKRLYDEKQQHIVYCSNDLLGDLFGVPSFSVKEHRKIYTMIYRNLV
Description: Next, a test compound was diluted with DMSO to produce protein buffer solution containing 10% dilution, and this buffer solution was added in an amount of 4 μL/well to the plate.
These dilutions were added in an amount of 8 μL/well (total reaction solution volume: 20 μl/well). Then, the plate was left at 25° C. for 1 hour.
The R value calculated from the well supplemented with His-p53, GST-Mdm2, the test compound, and each antibody was defined as R (sample). The R value calculated from the well supplemented with His-p53, GST-Mdm2, and each antibody but without the test compound was defined as R (control). The R value calculated from the well supplemented with GST-Mdm2, the test compound, and each antibody but without His-p53 was defined as R (background). T/C was calculated from the formula shown below. An IC50 value for Mdm2/p53 binding was calculated by sigmoid fitting. T/C=(R(sample)−R(background))/(R(control)−R(background))

SMILES | GI50 [1] [nM] | MS (human) % (metabolic stability, residual percentage of compound) [2] [%] | IC50 (Mdm2/p53 binding) [nM]
CC(C)C1=C(C(=O)N2C[C@H](F)C[C@H]2C(=O)N2CCNC3(CC3)C2)SC2=N[C@@](C)(c3ccc(Cl)nc3)[C@@H](c3ccc(Cl)c(F)c3)N21 [Example 1, 7-[(4R)-1-{[(5R,6S)-5-(4-chloro-3-fluorophenyl)-6-(6-chloropyridin-3-yl)-3-isopropyl-6-methyl-5,6-dihydroimidazo[2,1-b][1,3]thiazol-2-yl]carbonyl}-4-fluoro-L-prolyl]-4,7-diazaspiro[2.5]octane] | < 400 | 77 | 2.8
CC(C)C1=C(C(=O)N2C[C@H](F)C[C@H]2C(=O)N2CCN(C)C3(CC3)C2)SC2=N[C@@](C)(c3ccc(Cl)nc3)[C@@H](c3ccc(Cl)c(F)c3)N21 [Example 15, 7-[(4R)-1-{[(5R,6S)-5-(4-chloro-3-fluorophenyl)-6-(6-chloropyridin-3-yl)-3-isopropyl-6-methyl-5,6-dihydroimidazo[2,1-b][1,3]thiazol-2-yl]carbonyl}-4-fluoro-L-prolyl]-4-methyl-4,7-diazaspiro[2.5]octane] | < 400 | 44 | 2.7
CC(C)C1=C(C(=O)N2C[C@H](F)C[C@H]2C(=O)N2CCNC3(CC3)C2)SC2=N[C@@](C)(c3ccc(Cl)cc3)[C@@H](c3ccc(Cl)c(F)c3)N21 [Example 23] | < 400 | 24 | 1.6
CC(C)C1=C(C(=O)N2C[C@H](F)C[C@H]2C(=O)N2CC3(CC3)N(C)C[C@H]2C)SC2=N[C@@](C)(c3ccc(Cl)nc3)[C@@H](c3ccc(Cl)c(F)c3)N21 [Example 17] | 400 to 2500 | 44 | 3.3
CC(C)C1=C(C(=O)N2C[C@H](F)C[C@H]2C(=O)N2CC3(CC3)NCC23CC3)SC2=N[C@@](C)(c3ccc(Cl)nc3)[C@@H](c3ccc(Cl)c(F)c3)N21 [Example 8, 4-[(4R)-1-{[(5R,6S)-5-(4-chloro-3-fluorophenyl)-6-(6-chloropyridin-3-yl)-3-isopropyl-6-methyl-5,6-dihydroimidazo[2,1-b][1,3]thiazol-2-yl]carbonyl}-4-fluoro-L-prolyl]-4,9-diazaspiro[2.2.2.2]decane] | < 400 | 95 | 2.2
CC[C@@H]1CNC2(CC2)CN1C(=O)[C@@H]1C[C@@H](F)CN1C(=O)C1=C(C(C)C)N2C(=N[C@@](C)(c3ccc(Cl)nc3)[C@H]2c2ccc(Cl)cc2)S1 [Example 30] | 400 to 2500 | 62 | 3.1
CC(C)C1=C(C(=O)N2C[C@H](F)C[C@H]2C(=O)N2CC3(CC3)NC[C@@H]2C(=O)O)SC2=N[C@@](C)(c3ccc(Cl)nc3)[C@@H](c3ccc(Cl)c(F)c3)N21.Cl.Cl [Example 13, (6R)-7-[(4R)-1-{[(5R,6S)-5-(4-chloro-3-fluorophenyl)-6-(6-chloropyridin-3-yl)-3-isopropyl-6-methyl-5,6-dihydroimidazo[2,1-b][1,3]thiazol-2-yl]carbonyl}-4-fluoro-L-prolyl]-4,7-diazaspiro[2.5]octane-6-carboxylic acid dihydrochloride] | 400 to 2500 | 100 | 5.4
CC(C)C1=C(C(=O)N2C[C@H](F)C[C@H]2C(=O)N2CC3(CC3)NC[C@@H]2CO)SC2=N[C@@](C)(c3ccc(Cl)nc3)[C@@H](c3ccc(Cl)c(F)c3)N21 [Example 11, {(6R)-7-[(4R)-1-{[(5R,6S)-5-(4-chloro-3-fluorophenyl)-6-(6-chloropyridin-3-yl)-3-isopropyl-6-methyl-5,6-dihydroimidazo[2,1-b][1,3]thiazol-2-yl]carbonyl}-4-fluoro-L-prolyl]-4,7-diazaspiro[2.5]oct-6-yl}methanol] | 400 to 2500 | 100 | 3.2
CC(C)C1=C(C(=O)N2C[C@H](F)C[C@H]2C(=O)N2CCNC3(CC3)C2)SC2=N[C@@](C)(c3ccc(Cl)cc3)[C@@H](c3ccc(Cl)cc3)N21 [Example 18] | < 400 | 6 | 1.6
CC(C)C1=C(C(=O)N2C[C@H](F)C[C@H]2C(=O)N2CC3(CC3)NC[C@@H]2C)SC2=N[C@@](C)(c3ccc(Cl)nc3)[C@@H](c3ccc(Cl)cc3)N21 [Example 27] | < 400 | 91 | 1.9
CC(C)C1=C(C(=O)N2CC(F)(F)C[C@H]2C(=O)N2CC3(CC3)NC[C@@H]2C)SC2=N[C@@](C)(c3ccc(Cl)nc3)[C@@H](c3ccc(Cl)c(F)c3)N21 [Example 9, (6S)-7-(1-{[(5R,6S)-5-(4-chloro-3-fluorophenyl)-6-(6-chloropyridin-3-yl)-3-isopropyl-6-methyl-5,6-dihydroimidazo[2,1-b][1,3]thiazol-2-yl]carbonyl}-4,4-difluoro-L-prolyl)-6-methyl-4,7-diazaspiro[2.5]octane] | < 400 | 80 | 4.1
CC(C)C1=C(C(=O)N2C[C@H](F)C[C@H]2C(=O)N2CC3(CC3)N(C)C[C@@H]2C)SC2=N[C@@](C)(c3ccc(Cl)nc3)[C@@H](c3ccc(Cl)c(F)c3)N21 [Example 16] | < 400 | 56 | 2.3
CC[C@@H]1CNC2(CC2)CN1C(=O)[C@@H]1C[C@@H](F)CN1C(=O)C1=C(C(C)C)N2C(=N[C@@](C)(c3ccc(Cl)cc3)[C@H]2c2ccc(Cl)cc2)S1 [Example 22] | < 400 | 60 | 2.6
CC(C)C1=C(C(=O)N2C[C@H](F)C[C@H]2C(=O)N2CCNC3(CC3)C2)SC2=N[C@@](C)(c3ccc(Cl)nc3)[C@@H](c3ccc(Cl)cc3)N21 [Example 26] | 400 to 2500 | 57 | 2.7
CC(C)C1=C(C(=O)N2C[C@H](F)C[C@H]2C(=O)N2CC3(CC3)NC[C@H]2C)SC2=N[C@@](C)(c3ccc(Cl)nc3)[C@@H](c3ccc(Cl)cc3)N21 [Example 28] | 400 to 2500 | 51 | 3.1
CC(C)C1=C(C(=O)N2C[C@H](F)C[C@H]2C(=O)N2CC3(CC3)NC[C@@H]2CF)SC2=N[C@@](C)(c3ccc(Cl)nc3)[C@@H](c3ccc(Cl)c(F)c3)N21 [Example 31] | < 400 | 6 | 3.1
